We go through 81 compounds from the METLIN SMRT retention time set (Domingo-Almenara et al. 2019).

This data set can be described thus: gradient 5% acetonitrile 3 min, to 50% in 2 min, to 85% in 15 min, held 3 min, 100 µL/min. The following applies: column: Zorbax Extend-C18 2.1 x 50 mm; eluents: water / acetonitrile, 0.1% formic acid. A digest of the protocol: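 Over 3 months, pure standards in mixtures of ~100 molecules were run by HPLC coupled to a quadrupole time-of-flight mass spectrometer in positive and negative ionization mode. The column was a Zorbax Extend-C18 (2.1 × 50 mm, 1.8 μm) at 100 μL/min, eluted with water and acetonitrile each holding 0.1% formic acid, with 40 μL dead and 900 μL dwell volumes. Retention time was determined from adduct peaks chosen by software and checked manually.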
As to `CC(C)CN1C(=O)CCc2cc(NS(=O)(=O)c3ccccc3F)ccc21`, the RP-LC retention time was determined as 845 s.
To `COc1ccccc1NS(=O)(=O)c1cc2n(c1)CCN(CC(C)C)C2=O` belongs 798 s; to `O=c1n(Cc2cccc(Br)c2)nc2ccc(S(=O)(=O)N3CCCC3)cn12`, 928 s.
Take `Cc1cnc(C(=O)N2C[C@@H](Oc3cccnc3)C[C@H]2C(=O)NC2CC2)cn1`: the RP-LC retention time worked out at 554 s.
Regarding `CNC(=O)Nc1ccc(S(N)(=O)=O)cc1`, the RP-LC retention time was found to be 604 s.
Then `COc1cc(OC)c(NC(=O)c2cc3c(=O)n(CC(C)C)ccc3n2C)cc1Cl`, with 924 s; and `CN(Cc1cccnc1Oc1ccccc1)C(=O)c1cccn1C`, with 781 s.
Then `CCN1C(=O)COc2cc(-c3noc(C(=O)N4CCN(c5ccccc5)CC4)n3)ccc21`, with 1030 s; and `O=C(Nc1cccc(F)c1)N1CCCC1c1nc(-c2cccc(Cl)c2)no1` (stereo unspecified), with 1080 s.
To `CCn1c(SC)nnc1-c1nn(C)c2c1CN(C(C)=O)CC2` belongs 664 s; to `O=C(Nc1nc(C(=O)N2CCN(c3ccccn3)CC2)co1)c1cnccn1`, 517 s.
Compound `CCn1cc(CCNC(=O)c2cncc(Br)c2)c2cccnc21` showed an RP-LC retention time of 699 s.
With `CCc1ccccc1NC(=O)C1CCCN(S(=O)(=O)c2ccc(OC)c(C)c2)C1` (stereo unspecified), the RP-LC retention time amounted to 1020 s.
Then `CC1CN=C2C(N3CCN(C(=O)c4ccc(C#N)cc4)CC3)=NC=CN21` (stereo unspecified), with 678 s; and `CCC(C(=O)NCCCN1CCCC1=O)n1c2ccccc2c2cnn(C)c(=O)c21` (stereo unspecified), with 692 s.
To `O=C(Nc1cnc(N2CCOCC2)nc1)c1ccc(F)cc1Cl` belongs 743 s; to `CCC(C(=O)NC(C)C(=O)Nc1nc2ccccc2[nH]1)c1ccccc1` (stereo unspecified), 691 s.
Then `O=C([C@@H]1C[C@H](F)CN1C(=O)Nc1ccc(F)cc1)N1CCCCC1`, with 690 s; and `CCOC(=O)C1=C(CN2CCN(C(C)CC)CC2)NC(=O)NC1c1ccccc1` (stereo unspecified), with 625 s.
Consider `Cc1ccc(S(=O)(=O)N2CC(Cc3nncn3C3CCCC3)C2)cc1Cl`, for which the RP-LC retention time was 795 s.
To `COc1ccc(-c2nnc(-c3ccc(C)c(S(=O)(=O)N4CCN(C)CC4)c3)o2)cc1OC` belongs 646 s.
Then `COc1cc(-c2nnc(-c3ccc(C)c(S(=O)(=O)N4CCCCC4)c3)o2)cc(OC)c1OC`, with 1090 s.
Then `Cc1nc2cc(-c3noc(-c4ccc(Br)cc4)n3)ccc2o1`, with 1230 s; and `Cc1cc2c(cc(C(=O)NCCc3ccccc3)n2C)s1`, with 1040 s.
The compound `Cc1ccc(-c2nc(NC(=O)/C=C/c3ccc(Cl)cc3)sc2C)cc1` came in with an RP-LC retention time of 1300 s.
To `CCOc1ccccc1NS(=O)(=O)c1ccccc1-c1nc(-c2ccc(F)cc2)no1` belongs 1150 s; to `Cc1cccc(OCc2nc(-c3ccnc(N4CCCC4)c3)no2)c1`, 725 s.
Then `COc1ccc(NC(=O)N2CCN(c3cc(-n4nc(C)cc4C)ncn3)CC2)cc1Cl`, with 852 s; and `O=C(N[C@H]1C[C@@H]2C[C@H]1CN2C(=O)c1cccc(OC(F)(F)F)c1)c1ccccc1`, with 846 s.
To `Cc1ccc(NC(=O)Cn2cccc2-c2nnc(C3CCC3)o2)c(Cl)c1` belongs 1050 s; to `COc1cccc(CN2CC(N(C3CCOCC3)S(C)(=O)=O)C2)c1`, 614 s.
Turning to `COc1ccc(NC(=O)Cn2cnc3nc4c(cc3c2=O)CCCC4)cc1OC`, the RP-LC retention time turned out to be 676 s.
To `O=C1CSC(c2ccccc2Cl)c2cc(Cl)ccc2N1` (stereo unspecified) belongs 987 s; to `CCNC(=O)N1CCCN(S(=O)(=O)C(C)C)CC1`, 614 s.
Then `COC1CCC12CCN(C(=O)c1ccco1)CC2` (stereo unspecified), with 735 s; and `O=S(=O)(c1ccc2c(c1)CCCC2)N1CCN(c2ccc(-c3ccco3)nn2)CC1`, with 903 s.
To `Cc1ccc2ncn(C3CCN(S(=O)(=O)c4ccc(C)c(F)c4)CC3)c(=O)c2c1` belongs 968 s; to `COc1ccc(C(=O)Nc2cccc(-c3csc(C)n3)c2)nn1`, 586 s.
Turning to `CCOCCOC1CCN(S(=O)(=O)c2ccc(OC)cc2)CC1`, the RP-LC retention time stood at 831 s.
Then `CCCn1cc(CCNC(=O)Nc2cc(F)ccc2F)c2cccnc21`, with 849 s; and `N#Cc1ccc(C(=O)NCc2cnoc2-c2ccc(F)cc2)cc1`, with 848 s.
In the case of `O=C(c1ccsc1)N1CCN(c2cc(-c3ccc(Cl)cc3)[nH]n2)CC1`, the RP-LC retention time was 809 s.
Then `O=C(NCCc1c[nH]c2ccc(Cl)cc12)c1ccccc1Cl`, with 873 s.
To `COCCc1noc(C2CN(S(=O)(=O)c3cccc(F)c3)C2)n1` belongs 784 s; to `CCCCCC#CC[C@@H](O)/C=C/C=C/C=C\[C@@H](O)CCCC(=O)O`, 991 s.
As to `Fc1cnccc1CN1CCC(N2CC3(CCCCC3)C2c2ccccc2)CC1` (stereo unspecified), the RP-LC retention time was 596 s.
Take `COc1ccc2c(c1)C1(CCN(C(=O)Nc3ccc(F)cc3)C1)C(=O)N2` (stereo unspecified): the RP-LC retention time came to 683 s.
To `O=C(CSc1nnc2c3sc(N4CCCC4)nc3ncn12)Nc1ccccc1` belongs 772 s; to `COC[C@@H]1CN(Cc2ccc3cc[nH]c3c2)C[C@H]1c1nc(C)no1`, 631 s.
Then `COc1ccc(-n2c(=O)c(C(=O)NC(C)c3ccc(F)cc3)c(O)c3cccnc32)cc1` (stereo unspecified), with 1220 s; and `CCN(CC)S(=O)(=O)N1CCC(C(=O)N2CCN(Cc3noc4ccccc34)CC2)CC1`, with 708 s.
Consider `CCCNC(=O)C1CCN(c2ccc(SCC(=O)Nc3cc(C)cc(C)c3)nn2)CC1`, for which the RP-LC retention time came to 685 s.
`CCOc1ccc(C(=O)N2CCC3(CC2)NC(=O)c2cc(Cl)ccc2N3C)cc1` showed an RP-LC retention time of 853 s.
Consider `CC(=O)N1CCN(c2nc3c(s2)CC(C(=O)Nc2ccc(Cl)c(C)c2)CC3)CC1` (stereo unspecified), for which the RP-LC retention time was 652 s.
`Cc1ccccc1NS(=O)(=O)c1cc(-c2[nH]ncc2C(=O)N(C)C)oc1C` came in with an RP-LC retention time of 673 s.
To `O=C(Nc1ccc2c(c1)OCCO2)N1CCCn2nc(-c3cccs3)cc2C1` belongs 777 s; to `Cc1cc(C(=O)N2CCOCC2)c2cc(Cl)ccc2n1`, 640 s; to `Cc1cccc(-c2ncccc2CNS(=O)(=O)Cc2cccc(F)c2)c1`, 774 s.
Then `Cc1ccc(Cl)cc1NC(=O)C1CC(=O)N(CCc2c[nH]c3ccc(F)cc23)C1` (stereo unspecified), with 875 s.
Then `CNC(=O)N1CCOc2cc(C)ccc21`, with 713 s.
In the case of `CN(CC1CCOCC1)C(=O)Nc1cccc(Cl)c1`, the RP-LC retention time was found to be 750 s.
To `CSc1ccccc1C(=O)Nc1ccc(CC(=O)NCC(F)(F)F)cc1` belongs 738 s; to `O=C(NC1CC1)c1ccc(N2CCC(NCc3cc(F)ccc3O)C2)nc1` (stereo unspecified), 544 s; to `CC(C)c1ccc(S(=O)(=O)N2CCc3nc(-c4ccccc4)ncc3C2)cc1`, 1230 s.
To `CC1CCN(c2cncnc2-n2cc(NC(=O)CC3CCCCC3)cn2)CC1` belongs 1030 s; to `CCCN(C(C)=O)c1nc(-c2ccc(Br)cc2)cs1`, 1240 s; to `Brc1ccc(-c2ccc(CNCC3CCCO3)o2)cc1` (stereo unspecified), 703 s.
To `COc1ccc(CNC(=O)C2CCCN(c3nnc4ccc(Cl)cn34)C2)c(OC)c1` (stereo unspecified) belongs 753 s; to `O=C(Nc1nccs1)C1CCN(C(=O)C2c3ccccc3Oc3ccccc32)CC1`, 799 s.
In the case of `O=C(Nc1ccc2c(c1)N(C(=O)c1cccs1)CCC2)c1ccccc1Br`, the RP-LC retention time is 850 s.
Then `COc1ccc(-c2csc(Nc3cccc(C)n3)n2)cc1`, with 821 s; and `O=c1c(NCc2ccc(Cl)cc2)nccn1-c1ccc2c(c1)OCO2`, with 923 s.
To `Cc1ccc(CC(=O)Nc2cc(-c3nnc(C4CC4)o3)sc2C)cc1` belongs 981 s.
With `COc1cccc(CN2CCc3nc(N4CCN(c5ccccc5F)CC4)ncc3C2)c1`, the RP-LC retention time was 785 s.
To `Cc1nnc2ccc(NC(=O)Nc3cccc(F)c3)cn12` belongs 677 s.
To `COc1ccc(C(=O)N2C[C@@H]3C[C@H](NC(=O)c4cccs4)[C@H]2C3)c(C)c1` belongs 628 s; to `O=c1c2nc(-c3ccc(Br)cc3)cn2ccn1-c1ccc(F)c(F)c1`, 924 s; to `CC(=O)c1ccc(NC(=O)Cn2cc(-c3ccccc3)c3ncn(C4CC4)c(=O)c32)cc1`, 846 s.
To `Cc1ccc(-c2cn3c(CC(=O)NCc4ccco4)csc3n2)cc1C` belongs 750 s.
For `Cc1ccccc1CNC(=O)c1ccc2c(c1)Sc1ncccc1C(=O)N2C`, the RP-LC retention time turned out to be 789 s.
As to `CN(C)c1ccc(-c2nc3cnccn3c2Nc2cccc(Cl)c2)cc1`, the RP-LC retention time turned out to be 879 s.
